Test results from US7432342B2, “Kinase anchor protein muteins, peptides thereof and related documents” (Sequenom, Inc., priority 2002, dated 2008).
Ends that are not written are not given here. Peptide text beside a SMILES is read from it. * marks the point of attachment. X1 = CN(C)c1ccc2c(c1)Oc1cc(N(C)C)ccc1C21OC(=O)c2cc(N3C(=O)CC(*)C3=O)ccc21

Key:
full-length RIα = target: T1, full-length RIα (Bos taurus, UniProt P00514); test: Fluorescence anisotropy binding assay (Example 9); set-up: species or system bovine; conditions: for Kd: Table 8, truncated and substituted peptides, read-out: KD (nM) Rlα; for binding to RIα, in words: compared with the unsubstituted peptide
T1 construct: Full-length bovine RIα was expressed in E. coli 222; made in house; host or cells: E. coli 222
Procedure: (§1) Each peptide was fluorescently labeled using a 25 mM solution of tetramethylrhodamine-5-maleimide (catalog number T-6027; Molecular Probes, Eugene, Oreg.) dissolved in DMSO. The peptides were labeled by incubating with a three-fold molar excess of the label for 16 hr at 4° C. in 20 mM Tris, pH 7.0 and 1 mM tris-(2-carboxyethyl) phosphine, hydrochloride (TCEP) (non-thiol reducing agent, Molecular Probes). The sample was quenched with 1 mM, β-mercaptoethanol to bind to any unreacted maleimide and diluted with 0.1% TFA for purification by HPLC. The labeled peptides were resolved using a C18 column with a water/acetonitrile gradient containing 0.1% TFA. The concentration of each peptide was determined by absorbance at 541 nm after diluting into 100% methanol and using an extinction coefficient of 91,000 M^−1 cm^−1 for absorbance of the rhodamine label at 541 nm (Molecular Probes Catalog). The peptides were stored at 4° C. in 50% acetonitrile.
(§2) Full-length murine RIIα was expressed in E. coli BL21 (DE3). Full-length bovine RIα was expressed in E. coli 222. The proteins were purified as previously described using a cAMP affinity resin (Hamuro et al. (2002) J. Mol. Biol., 321:703). The protein concentrations were determined using the following extinction coefficients at 280 nm, which were calculated using a standard concentration of protein calibrated using quantitative amino acid analysis: RIα 52,603 M^−1 cm^−1 and RIIα 62,456 M^−1 cm^−1. The proteins were stored at 4° C. in 50 mM MES pH 5.8, 50 mM NaCl, 2 mM EDTA, 2 mM EGTA, 2 mM DTT.
(§3) Binding of each fluorescently labeled peptide to the regulatory subunits was monitored using fluorescence anisotropy. RIα and RIIα were serially diluted beginning at 1 μM and 0.1 μM, respectively, into 10 mM HEPES pH 7.4, 0.15 M NaCl, 3 mM EDTA, 0.005% Surfactant P20 (Biacore) containing either 10 nM or 1 nM of fluorescently labeled peptide for RIα and RIIα, respectively. The samples were equilibrated for at least 1 hour at room temperature and fluorescence anisotropy monitored using a Fluoromax-2 (Jobin Yvon Horiba, SPEX Division, Edison, N.J.) equipped with Glan-Thompson polarizers. The rhodamine-labeled peptide was excited at 541 nm (5-10 nm bandpass) and emission monitored at 575 nm (5-10 nm bandpass). The anisotropy was calculated directly with the Fluoromax software using the following equation: r=(IVV−G*IVH)/(IVV+2G*IVH) (1) where r is the steady state anisotropy, IVV is the fluorescence intensity with the excitation and emission polarizers oriented in the vertical position (0° from normal), IVH is the fluorescence intensity with the excitation polarizer in the vertical position and the emission polarizer oriented in the horizontal position (90°) relative to the excitation polarizer, G is the monochromator grating factor which is equal to (IHV/IHH), with the first subscript indicating the position of the excitation polarizer and the second subscript indicating position of the emission polarizer. Three separate binding experiments were averaged and fit to a 1:1 binding model using the non-linear regression application in GraphPad Prism version 3.00 (GraphPad Software, San Diego, Calif.).

full-length RIIα = target: T2, full-length RIIα (Mus musculus, UniProt P12367); test: Fluorescence anisotropy binding assay (Example 9); set-up: species or system murine; conditions: for Kd: Table 8, truncated and substituted peptides, read-out: KD (nM) Rllα; for binding to RIIα, in words: compared with the unsubstituted peptide
T2 construct: Full-length murine RIIα was expressed in E. coli BL21 (DE3); made in house; host or cells: E. coli BL21 (DE3)
Procedure: as §1, §2, §3

T2 sequence (P12367 whole entry, the tested form may be a part): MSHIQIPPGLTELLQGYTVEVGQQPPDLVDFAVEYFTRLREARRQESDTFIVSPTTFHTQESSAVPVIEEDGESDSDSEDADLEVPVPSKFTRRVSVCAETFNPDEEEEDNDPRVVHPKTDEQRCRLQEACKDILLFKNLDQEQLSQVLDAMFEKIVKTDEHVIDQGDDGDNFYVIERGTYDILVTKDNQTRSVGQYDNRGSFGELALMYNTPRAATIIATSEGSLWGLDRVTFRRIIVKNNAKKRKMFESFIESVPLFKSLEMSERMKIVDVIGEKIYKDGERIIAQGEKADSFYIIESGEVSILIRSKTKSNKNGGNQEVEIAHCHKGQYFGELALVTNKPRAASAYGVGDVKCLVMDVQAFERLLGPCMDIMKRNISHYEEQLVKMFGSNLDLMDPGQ
T1 sequence (P00514 whole entry, the tested form may be a part): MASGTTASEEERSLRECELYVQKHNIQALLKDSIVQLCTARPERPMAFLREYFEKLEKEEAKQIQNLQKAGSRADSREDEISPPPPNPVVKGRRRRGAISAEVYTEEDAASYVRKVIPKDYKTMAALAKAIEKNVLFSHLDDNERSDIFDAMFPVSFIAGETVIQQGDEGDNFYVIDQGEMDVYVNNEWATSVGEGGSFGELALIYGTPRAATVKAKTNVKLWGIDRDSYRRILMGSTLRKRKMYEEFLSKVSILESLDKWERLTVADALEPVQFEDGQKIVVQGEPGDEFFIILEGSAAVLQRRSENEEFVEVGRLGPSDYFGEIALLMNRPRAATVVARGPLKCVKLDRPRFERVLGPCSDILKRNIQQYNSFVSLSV

| Molecule | Kd (full-length RIα) | Kd (full-length RIIα) | binding to RIα, in words (full-length RIα) | binding to RIIα, in words (full-length RIIα) |
| --- | --- | --- | --- | --- |
| CC[C@H](C)[C@H](NC(=O)[C@H](CCCCN)NC(=O)[C@H](Cc1c[nH]c2ccccc12)NC(=O)[C@H](C)NC(=O)[C@H](CC(C)C)NC(=O)[C@H](CCC(=O)O)NC(=O)[C@H](CCC(=O)O)NC(=O)[C@@H](N)Cc1ccccc1)C(=O)N[C@@H](C)C(=O)N[C@@H](CCCCN)C(=O)N[C@@H](CCSC)C(=O)N[C@H](C(=O)N[C@@H](Cc1c[nH]c2ccccc12)C(=O)N[C@@H](CO)C(=O)N[C@@H](CC(=O)O)C(=O)N[C@H](C(=O)N[C@@H](CCSC)C(=O)N[C@@H](CCC(N)=O)C(=O)N[C@@H](CCC(N)=O)C(=O)N[C@@H](CSC1CC(=O)N(c2ccc3c(c2)C(=O)OC32c3ccc(N(C)C)cc3Oc3cc(N(C)C)ccc32)C1=O)C(N)=O)C(C)C)[C@@H](C)CC (stereo partly shown) [PV-37] (H-FEELAWKIAKMIWSDVMQQC(X1)-NH2) | 19 nM | 150 nM |  |  |
| CC[C@H](C)[C@H](NC(=O)[C@H](CCCCN)NC(=O)[C@H](Cc1c[nH]c2ccccc12)NC(=O)[C@H](C)NC(=O)[C@H](Cc1ccccc1)NC(=O)[C@H](CCC(=O)O)NC(=O)[C@H](CCC(=O)O)NC(=O)[C@@H](N)CCC(N)=O)C(=O)N[C@@H](C)C(=O)N[C@@H](CCCCN)C(=O)N[C@@H](CCSC)C(=O)N[C@H](C(=O)N[C@H](C(=O)N[C@@H](CO)C(=O)N[C@@H](CC(=O)O)C(=O)N[C@H](C(=O)N[C@@H](Cc1ccccc1)C(=O)N[C@@H](CCC(N)=O)C(=O)N[C@@H](CCC(N)=O)C(=O)N[C@@H](CSC1CC(=O)N(c2ccc3c(c2)C(=O)OC32c3ccc(N(C)C)cc3Oc3cc(N(C)C)ccc32)C1=O)C(N)=O)C(C)C)C(C)C)[C@@H](C)CC (stereo partly shown) [PV-47] (H-QEEFAWKIAKMIVSDVFQQC(X1)-NH2) | 39 nM | 89 nM |  |  |
| CC[C@H](C)[C@H](NC(=O)[C@H](CCCCN)NC(=O)[C@H](Cc1c[nH]c2ccccc12)NC(=O)[C@H](C)NC(=O)[C@H](Cc1ccccc1)NC(=O)[C@H](CCC(=O)O)NC(=O)[C@H](CCC(=O)O)NC(=O)[C@@H](N)CCC(N)=O)C(=O)N[C@@H](C)C(=O)N[C@@H](CCCCN)C(=O)N[C@@H](CCSC)C(=O)N[C@H](C(=O)N[C@H](C(=O)N[C@@H](CO)C(=O)N[C@@H](CC(=O)O)C(=O)N[C@H](C(=O)N[C@@H](Cc1ccccc1)C(=O)N[C@@H](CCC(N)=O)C(=O)N[C@@H](CCC(N)=O)C(=O)N[C@@H](CSC1CC(=O)N(c2ccc3c(c2)C(=O)OC32c3ccc(N(C)C)cc3Oc3cc(N(C)C)ccc32)C1=O)C(N)=O)C(C)C)[C@@H](C)CC)[C@@H](C)CC (stereo partly shown) [PV-48] (H-QEEFAWKIAKMIISDVFQQC(X1)-NH2) | 12 nM | 124 nM |  |  |
| CC[C@H](C)[C@H](NC(=O)[C@H](CCCCN)NC(=O)[C@H](Cc1c[nH]c2ccccc12)NC(=O)[C@H](C)NC(=O)[C@H](CC(C)C)NC(=O)[C@H](CCC(=O)O)NC(=O)[C@H](CCC(=O)O)NC(=O)[C@@H](N)Cc1ccccc1)C(=O)N[C@@H](C)C(=O)N[C@@H](CCCCN)C(=O)N[C@@H](CCSC)C(=O)N[C@H](C(=O)N[C@H](C(=O)N[C@@H](CO)C(=O)N[C@@H](CC(=O)O)C(=O)N[C@H](C(=O)N[C@@H](Cc1ccccc1)C(=O)N[C@@H](CCC(N)=O)C(=O)N[C@@H](CCC(N)=O)C(=O)N[C@@H](CSC1CC(=O)N(c2ccc3c(c2)C(=O)OC32c3ccc(N(C)C)cc3Oc3cc(N(C)C)ccc32)C1=O)C(N)=O)C(C)C)[C@@H](C)CC)[C@@H](C)CC (stereo partly shown) [PV-49] (H-FEELAWKIAKMIISDVFQQC(X1)-NH2) | 1.1 nM | 2.5 nM |  |  |
| CC[C@H](C)[C@H](NC(=O)[C@H](CCCCN)NC(=O)[C@H](Cc1c[nH]c2ccccc12)NC(=O)[C@H](C)NC(=O)[C@H](CC(C)C)NC(=O)[C@H](CCC(=O)O)NC(=O)[C@H](CCC(=O)O)NC(=O)[C@H](CCC(N)=O)NC(=O)[C@H](C)NC(=O)[C@H](CCC(=O)O)NC(=O)[C@H](CC(=O)O)NC(=O)[C@@H](NC(=O)[C@H](CC(N)=O)NC(=O)CNC(=O)[C@H](CCC(N)=O)NC(=O)[C@@H](N)C(C)C)[C@@H](C)O)C(=O)N[C@@H](C)C(=O)N[C@@H](CCCCN)C(=O)N[C@@H](CCSC)C(=O)N[C@H](C(=O)N[C@@H](Cc1c[nH]c2ccccc12)C(=O)N[C@@H](CO)C(=O)N[C@@H](CC(=O)O)C(=O)N[C@H](C(=O)N[C@@H](CCSC)C(=O)N[C@@H](CCC(N)=O)C(=O)N[C@@H](CCC(N)=O)C(=O)N[C@@H](CSC1CC(=O)N(c2ccc3c(c2)C(=O)OC32c3ccc(N(C)C)cc3Oc3cc(N(C)C)ccc32)C1=O)C(N)=O)C(C)C)[C@@H](C)CC (stereo partly shown) [SEQ ID NO:111] (H-VQGNTDEAQEELAWKIAKMIWSDVMQQC(X1)-NH2) | 120 nM | 83 nM |  |  |
| CC[C@H](C)[C@H](NC(=O)[C@H](CCCCN)NC(=O)[C@H](Cc1c[nH]c2ccccc12)NC(=O)[C@H](C)NC(=O)[C@H](CC(C)C)NC(=O)[C@H](CC(=O)O)NC(C)=O)C(=O)N[C@@H](C)C(=O)N[C@@H](CCCCN)C(=O)N[C@@H](CCSC)C(=O)N[C@H](C(=O)N[C@H](C(=O)N[C@@H](CO)C(=O)N[C@@H](CC(=O)O)C(=O)N[C@H](C(=O)N[C@@H](CCSC)C(=O)N[C@@H](CCC(N)=O)C(=O)N[C@@H](CCC(N)=O)C(=O)N[C@@H](CSC1CC(=O)N(c2ccc3c(c2)C(=O)OC32c3ccc(N(C)C)cc3Oc3cc(N(C)C)ccc32)C1=O)C(N)=O)C(C)C)C(C)C)[C@@H](C)CC (stereo partly shown) [SEQ ID NO:112, Ac-DLAWKIAKMIVSDVMQQC] (Ac-DLAWKIAKMIVSDVMQQC(X1)-NH2) | 773 nM | 107 nM |  |  |
| Ac-DLAWKIAKMIVSDVMQQ (listed as Homo sapiens) [SEQ ID NO:102] |  |  | reduced binding | reduced binding |
| VQGNTDEAQEELAWKIAKMIWSD[I/V]MQQ [SEQ ID NO:54] |  |  | binds tightly | weakly |
